Assay: Hepatocyte assay: concentration versus time data of parent compound, fitted for Km, Vmax and Kd
Method: Traditionally, initial experiments were performed to get a “ball park” number around the Km, then additional studies performed “near” that concentration. A data analyst, or fitting expert, then took the data and determined the Km and Vmax. Some expertise is required to be able to interpret the initial studies and then to fit the data to determine Km. […] Especially preferred concentrations are 0.4, 2, 10, 50, 125 and 250 μM.
Equation 1 is the equation that incorporates transport and makes the assumption that the changes in concentration with time cannot be fully explained using the Michaelis-Menten equation alone. Kd·C is the transport term where Kd is the first order rate constant and C is the concentration outside of the hepatocyte or cell. dC/dt is the rate of metabolism, Vmax is the maximum possible rate of metabolism and Km is the Michaelis-Menten constant defined as concentration where dC/dt equals ½*Vmax. [formula]
The best fit lines and simulated data are obtained using a minimization algorithm capable of determining Vmax, Km, and Kd values that provide minimum deviation of the simulated data from the experimental data. In this example the minimization algorithms were completed using the computer based application, Kinetica®.
Briefly, the minimization algorithms uses the main function “mrqmin” that relies on several other functions to complete the analysis. This function assignees different initial conditions to fitted variables and picks the best set of results based on the minimal value of the computed “sum of squares”. Some statistical information can be collected in this routine as well. The “mrqmin” function performs one iteration of Marquardt method. Algorithmically, it is the same as listed in Numerical Recipes with modifications to parameter input, output and exchanges, and some modifications to intermediate computations. The “mrqmin” calls “mrqcof” function for some intermediate computations. […]
Goodness of fit is determined by evaluation of % CV, and percent unchanged parent compounds remaining at 240 minutes at 0.4 μM.

With `Oc1ccc2c3c1O[C@H]1[C@@H](O)CC[C@@]4(O)[C@@H](C2)N(CC2CCC2)CC[C@]314` [Nalbuphine] the Km (Initial concentrations, hepatocyte assay) was 12.2 µM, the Km (Std (standardized) concentrations, hepatocyte assay) was 10.9 µM and the Km (determined by non-linear fitting and minimization, compound-specific initial concentrations (Table 9)) was 10 to 50 µM.

Reference: patent US20040039530A1, “Pharmacokinetic tool and method for predicting metabolism of a compound in a mammal” (priority 2003, published 2004)
